# Experimental data: paper PMC3301443 (Scientific Reports, 2012)
# Tests used:
# KDHba = type: biochemical, Burkholderia ambifaria; conditions: aldehyde oxidation
# PadA = biological target: T1, PadA (Escherichia coli, UniProt P80668); experiment: in vitro enzyme kinetics; type: biochemical; conditions: aldehyde oxidation
# T1 sequence (P80668 1-499): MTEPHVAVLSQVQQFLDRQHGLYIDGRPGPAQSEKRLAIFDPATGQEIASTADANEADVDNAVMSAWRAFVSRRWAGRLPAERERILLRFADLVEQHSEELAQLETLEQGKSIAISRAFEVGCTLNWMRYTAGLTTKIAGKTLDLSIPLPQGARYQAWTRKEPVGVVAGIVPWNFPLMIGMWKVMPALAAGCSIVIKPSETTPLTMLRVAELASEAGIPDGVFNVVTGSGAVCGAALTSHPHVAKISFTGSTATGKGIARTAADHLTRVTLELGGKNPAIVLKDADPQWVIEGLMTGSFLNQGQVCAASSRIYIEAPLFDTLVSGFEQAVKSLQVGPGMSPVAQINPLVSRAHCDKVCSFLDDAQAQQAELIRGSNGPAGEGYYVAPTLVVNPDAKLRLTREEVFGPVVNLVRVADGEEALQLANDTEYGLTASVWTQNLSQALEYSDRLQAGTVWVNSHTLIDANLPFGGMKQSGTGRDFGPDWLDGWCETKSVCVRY
SMILES,Km (KDHba) [mM],Km (PadA) [mM]
CC(C)CCC=O [isohexanal],0.52,
CC(C)C=O [isobutanal],34.5,
CC(C)CC=O [isopentanal],,1.95
